Read-outs that look alike come from different tables or passages of the source. Numbered stars: 1 amine (or outer) side, 2 acyl side, 3 side chain; on linkers, the order of the positions; unused ones are H or OH. Square brackets hold non-standard residues; d marks the D form. Side chains are listed from the residue outwards. Peptide text beside a SMILES is read from it. * marks the point of attachment. Phe(4-CH2NH2) = NCc1ccc(C[C@H](N)C(=O)O)cc1; C18 diacid = O=C(O)CCCCCCCCCCCCCCCCC(=O)*; C16 diacid = O=C(O)CCCCCCCCCCCCCCC(=O)*; γGlu = O=C(O)[C@H](CCC(=O)[*:2])N[*:1]; Met(O2) = CS(=O)(=O)CC[C@H](N)C(=O)O; αMeD = C[C@](N)(CC(=O)O)C(=O)O; αMeS = C[C@](N)(CO)C(=O)O; AEEA = NCCOCCOCC(=O)O; Aib = CC(C)(N)C(=O)O
Assays:
human GCGR = biological target: T1, human GCGR (Homo sapiens, UniProt P47871); assay: cAMP activity assay at the Glucagon receptor (GCGR); type: cell-based; settings: for hGCGR/hGLP1R (hTone): ratio of GCGR EC50 to GLP1R EC50
T1 construct: expressed in transfected cells; growth medium holds Blasticidin and Hygromycin
Summary of the method: (§1)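 Peptides serially diluted from DMSO (10 points) and added to frozen-stock cells bearing human GLP1R (10,000 cells/well) or GCGR (30,000 cells/well), 1 h at RT, dark. EC50 by four-parameter logistic fit of HitHunter cAMPXS luminescence, read following overnight RT incubation.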

human GLP1R = biological target: T2, human GLP1R (Homo sapiens, UniProt P43220); assay: cAMP activity assay at the GLP-1 receptor (GLP1R); type: cell-based
T2 construct: expressed in transfected cells; growth medium holds Blasticidin and Hygromycin
Summary of the method: as §1

[1] = cells expressing human GCGR, cAMP production, buffer with or without 20% human serum (not stated which), read-out: GCGR EC50 human
[2] = summary statement: EC50 at each of the glucagon and GLP-1 receptors, read-out: EC50 at the glucagon receptor
[3] = summary statement: EC50 at each of the glucagon and GLP-1 receptors, read-out: EC50 at the GLP-1 receptor

T1 sequence (P47871 26-477): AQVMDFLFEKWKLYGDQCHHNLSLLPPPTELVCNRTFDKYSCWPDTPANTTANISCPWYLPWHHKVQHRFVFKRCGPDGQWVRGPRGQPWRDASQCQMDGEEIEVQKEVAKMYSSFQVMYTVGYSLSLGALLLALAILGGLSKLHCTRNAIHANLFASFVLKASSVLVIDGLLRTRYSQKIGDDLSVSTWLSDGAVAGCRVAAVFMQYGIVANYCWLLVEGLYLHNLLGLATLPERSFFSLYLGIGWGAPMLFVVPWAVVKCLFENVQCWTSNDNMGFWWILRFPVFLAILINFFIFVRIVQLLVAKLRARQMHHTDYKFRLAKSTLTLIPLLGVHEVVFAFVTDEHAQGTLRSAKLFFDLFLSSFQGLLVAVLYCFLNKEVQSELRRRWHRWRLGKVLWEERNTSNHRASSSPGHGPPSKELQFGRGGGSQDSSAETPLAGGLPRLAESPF
T2 sequence (P43220 24-463): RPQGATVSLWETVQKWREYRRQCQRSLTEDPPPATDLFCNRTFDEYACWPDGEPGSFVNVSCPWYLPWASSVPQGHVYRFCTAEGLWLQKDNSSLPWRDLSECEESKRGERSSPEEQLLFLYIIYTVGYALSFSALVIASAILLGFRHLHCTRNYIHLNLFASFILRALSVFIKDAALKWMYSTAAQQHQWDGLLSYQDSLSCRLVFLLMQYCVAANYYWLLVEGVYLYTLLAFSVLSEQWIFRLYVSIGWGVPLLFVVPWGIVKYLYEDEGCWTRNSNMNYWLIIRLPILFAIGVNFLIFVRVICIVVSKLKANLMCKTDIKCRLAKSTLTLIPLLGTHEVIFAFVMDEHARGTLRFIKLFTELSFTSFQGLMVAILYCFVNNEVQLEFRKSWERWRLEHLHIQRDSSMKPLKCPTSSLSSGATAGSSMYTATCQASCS

Structure (SMILES)	EC50 (human GCGR; [1]) [nM]	hGCGR/hGLP1R (hTone) (human GCGR)	EC50 (human GCGR; [2]) [nM]	EC50 (human GLP1R; [3]) [nM]	EC50 (human GLP1R; cells expressing human GLP1R, cAMP production, buffer with or without 20% human serum (not stated which), read-out: GLP1R EC50 human) [nM]
CC(C)C[C@H](NC(=O)[C@H](Cc1ccc(O)cc1)NC(=O)[C@H](CCCCN)NC(=O)[C@H](CO)NC(=O)[C@H](Cc1ccc(O)cc1)NC(=O)[C@H](CC(=O)O)NC(=O)[C@H](CO)NC(=O)[C@@H](NC(=O)[C@H](Cc1ccccc1)NC(=O)[C@@H](NC(=O)CNC(=O)[C@H](CCC(N)=O)NC(=O)[C@](C)(CO)NC(=O)[C@@H](N)Cc1c[nH]cn1)[C@@H](C)O)[C@@H](C)O)C(=O)N[C@@H](CC(=O)O)C(=O)NC(C)(C)C(=O)N[C@@H](CCCNC(=N)N)C(=O)N[C@@H](C)C(=O)N[C@@H](C)C(=O)N[C@@H](CCC(N)=O)C(=O)N[C@@H](CCCCNC(=O)COCCOCCNC(=O)COCCOCCNC(=O)CC[C@H](NC(=O)CCCCCCCCCCCCCCC(=O)O)C(=O)O)C(=O)N[C@@H](Cc1ccccc1)C(=O)N[C@H](C(=O)N[C@@H](CCC(N)=O)C(=O)N[C@@H](Cc1c[nH]c2ccccc12)C(=O)N[C@@H](CC(C)C)C(=O)N[C@@H](CCS(C)(=O)=O)C(=O)N[C@@](C)(CC(=O)O)C(=O)N[C@H](C(N)=O)[C@@H](C)O)C(C)C [TP619] (H-H[αMeS]QGTFTSDYSKYLD[Aib]RAAQK([AEEA-AEEA-γGlu-C16 diacid])FVQWL[Met(O2)][αMeD]T-NH2)		0.1	< 5	< 5	0.38
CC(C)C[C@H](NC(=O)[C@H](Cc1ccc(O)cc1)NC(=O)[C@H](CCCCN)NC(=O)[C@H](CO)NC(=O)[C@H](Cc1ccc(O)cc1)NC(=O)[C@H](CC(=O)O)NC(=O)[C@H](CO)NC(=O)[C@@H](NC(=O)[C@H](Cc1ccccc1)NC(=O)[C@@H](NC(=O)CNC(=O)[C@H](CCC(N)=O)NC(=O)[C@](C)(CO)NC(=O)[C@@H](N)Cc1c[nH]cn1)[C@@H](C)O)[C@@H](C)O)C(=O)N[C@@H](CC(=O)O)C(=O)NC(C)(C)C(=O)N[C@@H](CCCNC(=N)N)C(=O)N[C@@H](C)C(=O)N[C@@H](C)C(=O)N[C@@H](CCCCNC(=O)COCCOCCNC(=O)COCCOCCNC(=O)CC[C@H](NC(=O)CCCCCCCCCCCCCCCCC(=O)O)C(=O)O)C(=O)N[C@@H](CC(=O)O)C(=O)N[C@@H](Cc1ccccc1)C(=O)N[C@H](C(=O)N[C@@H](CCC(N)=O)C(=O)N[C@@H](Cc1c[nH]c2ccccc12)C(=O)N[C@@H](CC(C)C)C(=O)N[C@@H](CCS(C)(=O)=O)C(=O)N[C@@](C)(CC(=O)O)C(=O)N[C@H](C(N)=O)[C@@H](C)O)C(C)C [TP620] (H-H[αMeS]QGTFTSDYSKYLD[Aib]RAAK([AEEA-AEEA-γGlu-C18 diacid])DFVQWL[Met(O2)][αMeD]T-NH2; N-terminus assumed)		0.1	< 5	< 5	
CC(C)C[C@H](NC(=O)[C@H](Cc1ccc(O)cc1)NC(=O)[C@H](CCCCN)NC(=O)[C@H](CO)NC(=O)[C@H](Cc1ccc(O)cc1)NC(=O)[C@H](CC(=O)O)NC(=O)[C@H](CO)NC(=O)[C@@H](NC(=O)[C@H](Cc1ccccc1)NC(=O)[C@@H](NC(=O)CNC(=O)[C@H](CCC(N)=O)NC(=O)[C@](C)(CO)NC(=O)[C@@H](N)Cc1c[nH]cn1)[C@@H](C)O)[C@@H](C)O)C(=O)N[C@@H](CC(=O)O)C(=O)NC(C)(C)C(=O)N[C@@H](CCCNC(=N)N)C(=O)N[C@@H](C)C(=O)N[C@@H](C)C(=O)N[C@@H](CCC(N)=O)C(=O)N[C@@H](CCCCNC(=O)COCCOCCNC(=O)COCCOCCNC(=O)CC[C@H](NC(=O)CCCCCCCCCCCCCCCCC(=O)O)C(=O)O)C(=O)N[C@@H](Cc1ccccc1)C(=O)N[C@H](C(=O)N[C@@H](CCC(N)=O)C(=O)N[C@@H](Cc1c[nH]c2ccccc12)C(=O)N[C@@H](CC(C)C)C(=O)N[C@@H](CCS(C)(=O)=O)C(=O)N[C@@](C)(CC(=O)O)C(=O)N[C@H](C(N)=O)[C@@H](C)O)C(C)C [TP621] (H-H[αMeS]QGTFTSDYSKYLD[Aib]RAAQK([AEEA-AEEA-γGlu-C18 diacid])FVQWL[Met(O2)][αMeD]T-NH2)	0.25	0.1	< 5	< 5	

Second part, the compound after the results:

EC50 (human GCGR; [1]) [nM]	hGCGR/hGLP1R (hTone) (human GCGR)	EC50 (human GCGR; [2]) [nM]	EC50 (human GLP1R; [3]) [nM]	EC50 (human GLP1R; cells expressing human GLP1R, cAMP production, buffer with or without 20% human serum (not stated which), read-out: GLP1R EC50 human) [nM]	Structure (SMILES)
0.36	0.1	< 5	< 5		CC(C)C[C@H](NC(=O)[C@H](Cc1ccc(O)cc1)NC(=O)[C@H](CCCCN)NC(=O)[C@H](CO)NC(=O)[C@H](Cc1ccc(O)cc1)NC(=O)[C@H](CC(=O)O)NC(=O)[C@H](CO)NC(=O)[C@@H](NC(=O)[C@H](Cc1ccccc1)NC(=O)[C@@H](NC(=O)CNC(=O)[C@H](CCC(N)=O)NC(=O)[C@](C)(CO)NC(=O)[C@@H](N)Cc1c[nH]cn1)[C@@H](C)O)[C@@H](C)O)C(=O)N[C@@H](CC(=O)O)C(=O)NC(C)(C)C(=O)N[C@@H](CCCNC(=N)N)C(=O)N[C@@H](C)C(=O)N[C@@H](C)C(=O)N[C@@H](CCCCNC(=O)COCCOCCNC(=O)COCCOCCNC(=O)CC[C@H](NC(=O)CCCCCCCCCCCCCCC(=O)O)C(=O)O)C(=O)N[C@@H](CC(=O)O)C(=O)N[C@@H](Cc1ccccc1)C(=O)N[C@H](C(=O)N[C@@H](CCC(N)=O)C(=O)N[C@@H](Cc1c[nH]c2ccccc12)C(=O)N[C@@H](CC(C)C)C(=O)N[C@@H](CCS(C)(=O)=O)C(=O)N[C@@](C)(CC(=O)O)C(=O)N[C@H](C(N)=O)[C@@H](C)O)C(C)C [TP618] (H-H[αMeS]QGTFTSDYSKYLD[Aib]RAAK([AEEA-AEEA-γGlu-C16 diacid])DFVQWL[Met(O2)][αMeD]T-NH2)
	0.4	< 5	< 5		CC(C)C[C@H](NC(=O)[C@H](Cc1ccc(O)cc1)NC(=O)[C@H](CCCCN)NC(=O)[C@H](CO)NC(=O)[C@H](Cc1ccc(CNC(=O)COCCOCCNC(=O)CC[C@H](NC(=O)CCCCCCCCCCCCCCC(=O)O)C(=O)O)cc1)NC(=O)[C@H](CC(=O)O)NC(=O)[C@H](CO)NC(=O)[C@@H](NC(=O)[C@H](Cc1ccccc1)NC(=O)[C@@H](NC(=O)CNC(=O)[C@H](CCC(N)=O)NC(=O)C(C)(C)NC(=O)[C@@H](N)Cc1c[nH]cn1)[C@@H](C)O)[C@@H](C)O)C(=O)N[C@@H](CC(=O)O)C(=O)N[C@@H](C)C(=O)N[C@@H](CCCNC(=N)N)C(=O)N[C@@H](C)C(=O)N[C@@H](C)C(=O)N[C@@H](CCC(N)=O)C(=O)N[C@@H](CC(=O)O)C(=O)N[C@@H](Cc1ccccc1)C(=O)N[C@H](C(=O)N[C@@H](CCC(N)=O)C(=O)N[C@@H](Cc1c[nH]c2ccccc12)C(=O)N[C@@H](CC(C)C)C(=O)N[C@@H](CCS(C)(=O)=O)C(=O)N[C@@H](CC(=O)O)C(=O)N[C@H](C(N)=O)[C@@H](C)O)C(C)C [TP622] (H-H[Aib]QGTFTSD[Phe(4-CH2NH2)]([AEEA-γGlu-C16 diacid])SKYLDARAAQDFVQWL[Met(O2)]DT-NH2; N-terminus assumed)
	0.5	< 5	< 5		CC(C)C[C@H](NC(=O)[C@H](Cc1ccc(O)cc1)NC(=O)[C@H](CCCCN)NC(=O)[C@H](CO)NC(=O)[C@H](Cc1ccc(CNC(=O)COCCOCCNC(=O)CC[C@H](NC(=O)CCCCCCCCCCCCCCCCC(=O)O)C(=O)O)cc1)NC(=O)[C@H](CC(=O)O)NC(=O)[C@H](CO)NC(=O)[C@@H](NC(=O)[C@H](Cc1ccccc1)NC(=O)[C@@H](NC(=O)CNC(=O)[C@H](CCC(N)=O)NC(=O)C(C)(C)NC(=O)[C@@H](N)Cc1c[nH]cn1)[C@@H](C)O)[C@@H](C)O)C(=O)N[C@@H](CC(=O)O)C(=O)N[C@@H](C)C(=O)N[C@@H](CCCNC(=N)N)C(=O)N[C@@H](C)C(=O)N[C@@H](C)C(=O)N[C@@H](CCC(N)=O)C(=O)N[C@@H](CC(=O)O)C(=O)N[C@@H](Cc1ccccc1)C(=O)N[C@H](C(=O)N[C@@H](CCC(N)=O)C(=O)N[C@@H](Cc1c[nH]c2ccccc12)C(=O)N[C@@H](CC(C)C)C(=O)N[C@@H](CCS(C)(=O)=O)C(=O)N[C@@H](CC(=O)O)C(=O)N[C@H](C(N)=O)[C@@H](C)O)C(C)C [TP623] (H-H[Aib]QGTFTSD[Phe(4-CH2NH2)]([AEEA-γGlu-C18 diacid])SKYLDARAAQDFVQWL[Met(O2)]DT-NH2)
	1.1	< 5	< 5		CC(C)C[C@H](NC(=O)[C@H](Cc1ccc(O)cc1)NC(=O)[C@H](CCCCN)NC(=O)[C@H](CO)NC(=O)[C@H](Cc1ccc(CNC(=O)COCCOCCNC(=O)COCCOCCNC(=O)CC[C@H](NC(=O)CCCCCCCCCCCCCCCCC(=O)O)C(=O)O)cc1)NC(=O)[C@H](CC(=O)O)NC(=O)[C@H](CO)NC(=O)[C@@H](NC(=O)[C@H](Cc1ccccc1)NC(=O)[C@@H](NC(=O)CNC(=O)[C@H](CCC(N)=O)NC(=O)C(C)(C)NC(=O)[C@@H](N)Cc1c[nH]cn1)[C@@H](C)O)[C@@H](C)O)C(=O)N[C@@H](CC(=O)O)C(=O)N[C@@H](C)C(=O)N[C@@H](CCCNC(=N)N)C(=O)N[C@@H](C)C(=O)N[C@@H](C)C(=O)N[C@@H](CCC(N)=O)C(=O)N[C@@H](CC(=O)O)C(=O)N[C@@H](Cc1ccccc1)C(=O)N[C@H](C(=O)N[C@@H](CCC(N)=O)C(=O)N[C@@H](Cc1c[nH]c2ccccc12)C(=O)N[C@@H](CC(C)C)C(=O)N[C@@H](CCS(C)(=O)=O)C(=O)N[C@@](C)(CC(=O)O)C(=O)N[C@H](C(N)=O)[C@@H](C)O)C(C)C [TP624] (H-H[Aib]QGTFTSD[Phe(4-CH2NH2)]([AEEA-AEEA-γGlu-C18 diacid])SKYLDARAAQDFVQWL[Met(O2)][αMeD]T-NH2; N-terminus assumed)
